Measured values: PubChem BioAssay (NCI)
Values joined by “and” are separate entries in the source; they are usually repeats but may differ in a detail not shown here. Identical values can stand only once.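 Protocol summary: plate cells (96-well), add compound at 5 concentrations, incubate 48 h, interpolate endpoints linearly. GI50: concentration for 50% inhibition of growth. TGI: concentration producing complete growth inhibition.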 *1 amine or outer side, *2 acyl side, *3 side chain or, on linkers, in order; H or OH if unused. Where a SMILES comes first, the peptide text is derived from it. Bridges are numbered along the chain shown (N, C = ends). [ ]: non-standard residue; d: D form. The star is where a group is joined. Phe(3,5-F2) = N[C@@H](Cc1cc(F)cc(F)c1)C(=O)O; Pro(4R-Me) = C[C@H]1CN[C@H](C(=O)O)C1; aThr = C[C@H](O)[C@H](N)C(=O)O; Pip = O=C(O)[C@@H]1CCCCN1; X10 = Fc1cc(C2CC2)ccc1N*; CO = O=C([*:1])[*:2]

Tests used:
Test in all cases: growth of human tumour cells (NCI), 48 h
[1] = system: MDA-MB-468 breast
[2] = system: 786-0 renal
[3] = system: A549 NSCLC
[4] = system: ACHN renal
[5] = system: CAKI-1 renal
[6] = system: DU-145 prostate
[7] = system: EKVX NSCLC
[8] = system: HCC-2998 colon
[9] = system: HCT-15 colon
[10] = system: HL-60(TB) leukemia
[11] = system: HOP-62 NSCLC
[12] = system: HOP-92 NSCLC
[13] = system: HT29 colon
[14] = system: IGROV1 ovarian
[15] = system: K-562 leukemia
[16] = system: KM12 colon
[17] = system: M14 melanoma
[18] = system: MALME-3M melanoma
[19] = system: MCF7 breast
[20] = system: MDA-MB-231 breast
[21] = system: MDA-MB-435
[22] = system: MOLT-4 leukemia
[23] = system: NCI-H226 lung
[24] = system: NCI-H23 lung
[25] = system: NCI-H460 lung
[26] = system: NCI-H522 lung
[27] = system: OVCAR-3 ovarian
[28] = system: OVCAR-4 ovarian
[29] = system: OVCAR-5 ovarian
[30] = system: OVCAR-8 ovarian
[31] = system: PC-3 prostate
[32] = system: RPMI-8226 leukemia
[33] = system: SF-268 CNS
[34] = system: SF-295 CNS
[35] = system: SF-539 CNS
[36] = system: SK-MEL-5 melanoma
[37] = system: SN12C renal
[38] = system: SNB-19 CNS
[39] = system: SNB-75 CNS
[40] = system: SR leukemia
[41] = system: SW-620 colon
[42] = system: T-47D breast
[43] = system: U251 CNS
[44] = system: UACC-257 melanoma
[45] = system: UO-31 renal

COc1cccc(C2c3cc4c(cc3OC(C)(N3CCCC3)C2C)OCO4)c1O (stereo not drawn)
GI50 [1]: 4.66 µM | TGI [1]: > 100 µM

O=C1NC(=NCCc2cccc(F)c2)S/C1=C\c1ccc2ncccc2c1
GI50 [1]: 1.18 µM | TGI [1]: > 20.4 µM

C=CC(=O)Nc1cc(Nc2ncc(C(=O)OC(C)C)c(-c3cn(C)c4ccccc34)n2)c(OC)cc1N(C)CCN(C)C
GI50 [1]: < 0.01 µM | TGI [1]: 0.069 µM

Fc1[nH]nc2ccc([C@@H]3Nc4ccc5[nH]ncc5c4[C@H]4C5CCC(C5)[C@@H]34)cc12 (stereo partly drawn)
GI50 [1]: 0.361 µM | TGI [1]: 12 µM

FC(F)(F)c1cccc(Nc2nc(-c3ccccc3)nc3ncccc23)c1
GI50 [1]: 2.42 µM | TGI [1]: 7.71 µM

NS(=O)(=O)OC[C@@H]1C[C@@H](n2ccc3c(NC4CCc5ccccc54)ncnc32)C[C@@H]1O (stereo partly drawn)
GI50 [1]: 1.31 µM | TGI [1]: 50.2 µM

Cc1cc(N=C2NC(=O)S/C2=C\c2ccc(F)cc2)n[nH]1
GI50 [2]: 3.01 µM | TGI [2]: > 100 µM | GI50 [3]: 3.07 µM | TGI [3]: > 100 µM | GI50 [4]: 3.36 µM | TGI [4]: > 100 µM | GI50 [5]: 3.81 µM | TGI [5]: > 100 µM | GI50 [6]: 5.33 µM | TGI [6]: > 100 µM | GI50 [7]: 2.69 µM | TGI [7]: > 100 µM | GI50 [8]: 3.67 µM | TGI [8]: > 100 µM | GI50 [9]: 2.47 µM | TGI [9]: > 100 µM | GI50 [10]: 3.3 µM | TGI [10]: > 100 µM | GI50 [11]: 2.59 µM | TGI [11]: > 100 µM | GI50 [12]: 2.62 µM | TGI [12]: > 100 µM | GI50 [13]: 4.09 µM | TGI [13]: > 100 µM | GI50 [14]: 2.59 µM | TGI [14]: > 100 µM | GI50 [15]: 3.32 µM | TGI [15]: > 100 µM | GI50 [16]: 4.13 µM | TGI [16]: > 100 µM | GI50 [17]: 2.63 µM | TGI [17]: > 100 µM | GI50 [18]: 3.47 µM | TGI [18]: > 100 µM | GI50 [19]: 2.36 µM | TGI [19]: > 100 µM | GI50 [20]: 2.95 µM | TGI [20]: > 100 µM | GI50 [21]: 3 µM | TGI [21]: > 100 µM | GI50 [22]: 2.93 µM | TGI [22]: > 100 µM | GI50 [23]: 2.9 µM | TGI [23]: > 100 µM | GI50 [24]: 3.63 µM | TGI [24]: > 100 µM | GI50 [25]: 3.13 µM | TGI [25]: > 100 µM | GI50 [26]: 2.57 µM | TGI [26]: > 100 µM | GI50 [27]: 3.13 µM | TGI [27]: > 100 µM | GI50 [28]: 3.85 µM | TGI [28]: > 100 µM | GI50 [29]: 3.65 µM | TGI [29]: > 100 µM | GI50 [30]: 2.76 µM | TGI [30]: > 100 µM | GI50 [31]: 3.37 µM | TGI [31]: > 100 µM | GI50 [32]: 2.27 µM | TGI [32]: 6.34 µM | GI50 [33]: 4.48 µM | TGI [33]: > 100 µM | GI50 [34]: 2.79 µM | TGI [34]: > 100 µM | GI50 [35]: 2.84 µM | TGI [35]: > 100 µM | GI50 [36]: 3.16 µM | TGI [36]: > 100 µM | GI50 [37]: 3.81 µM | TGI [37]: > 100 µM | GI50 [38]: 3.2 µM | TGI [38]: > 100 µM | GI50 [39]: 2.12 µM | TGI [39]: > 100 µM | GI50 [40]: 2.35 µM | TGI [40]: > 100 µM | GI50 [41]: 3.92 µM | TGI [41]: > 100 µM | GI50 [42]: 2.58 µM | TGI [42]: > 100 µM | GI50 [43]: 2.35 µM | TGI [43]: > 100 µM | GI50 [44]: 2.82 µM | TGI [44]: > 100 µM | GI50 [45]: 2.33 µM | TGI [45]: > 100 µM

C[C@@H]1C[C@H]2C(=O)O[C@@H](C)[C@H](NC(=O)[C@H](Cc3cc(F)cc(F)c3)NC(=O)Nc3ccc(C4CC4)cc3F)C(=O)N3CCC[C@H]3C(=O)N3CCCC[C@H]3C(=O)N[C@@H](C)C(=O)N2C1 ({X10-CO}-[Phe(3,5-F2)][aThr]P[Pip]A[Pro(4R-Me)]; ester 2-C)
GI50 [1]: 0.0257 µM | TGI [1]: 0.187 µM

COc1ccc([C@H]2[C@H](O)C(=O)N2c2cc(OC)c(OC)c(OC)c2)cc1F
GI50 [1]: < 0.01 µM | TGI [1]: > 100 µM

CC1CCc2nc[nH]c(=O)c21 (stereo not drawn)
GI50 [1]: > 100 µM | TGI [1]: > 100 µM

Nc1c(C(=O)c2cccc(CCS(N)(=O)=O)c2)cnn1-c1ccc(F)cc1
GI50 [1]: > 17.7 µM | TGI [1]: > 25 µM

COc1ccc2c(c1)sc1nc(-c3ccccc3)c(-c3cccc4ccccc34)n12
GI50 [1]: 1.47 µM | TGI [1]: 5.05 µM

O=C(Nc1ccc(-n2ccc3c(NC(=O)c4ccccc4)nccc32)cc1)c1ccc(Cl)c(C(F)(F)F)c1
GI50 [1]: 0.919 µM | TGI [1]: 5.65 µM

Cc1ccc(NC(=O)Nc2ccc(-c3cccnc3)cc2N2CCC(CO)CC2)cc1
GI50 [1]: 2.49 µM | TGI [1]: 7.12 µM

O=C(Nc1ccc(F)cc1)Nc1ccc(Cl)c([N+](=O)[O-])c1
GI50 [1]: 2.15 µM | TGI [1]: 7.54 µM

Cn1cc(C2=C(c3c4n(c5ccccc35)CCCCC4)C(=O)NC2=O)c2ccccc21
GI50 [1]: 1.17 µM | TGI [1]: > 19.9 µM

COc1cc2c(c(OC)c1OC)-c1ccc(NNC(N)=S)c(=O)cc1[C@@H](NC(C)=O)CC2
GI50 [1]: 0.233 µM

Cc1nc2sccn2c1-c1csc(Nc2ccccc2Cl)n1
GI50 [1]: 0.719 µM | TGI [1]: 5.84 µM

C[C@@H](Oc1cc(-n2cnc3ccc(CN4CCN(C)CC4)cc32)sc1C(N)=O)c1ccccc1C(F)(F)F
GI50 [1]: < 0.01 µM and 0.004 µM | TGI [1]: 1.4 µM and 2.87 µM

CN1CCCCC1CCN1c2ccccc2Sc2ccc(Cl)cc21 (stereo not drawn)
GI50 [1]: 1.94 µM | TGI [1]: 4.44 µM

Cc1ccc2c(C)c3c(ccc4ccccc43)c[n+]2c1
GI50 [1]: 0.408 µM | TGI [1]: 2.24 µM

CN(C)c1ccc(/C=C\C2=[N+](C)c3ccccc3C2(C)C)cc1
GI50 [1]: 0.287 µM | TGI [1]: 5.08 µM

COC1/C=C/OC2(C)Oc3c(C)c(O)c4c(O)c(c(/C=N/Nc5ccc([N+](=O)[O-])cc5[N+](=O)[O-])c(O)c4c3C2=O)NC(=O)C(C)=C/C=C/C(C)C(O)C(C)C(O)C(C)C(OC(C)=O)C1C (stereo not drawn)
GI50 [1]: 1.11 µM | TGI [1]: 2.86 µM

OC1CSSC1Cn1cnc2c(Nc3ccc(OCc4cccc(F)c4)c(Cl)c3)ncnc21 (stereo not drawn)
GI50 [1]: 0.786 µM | TGI [1]: 2.12 µM

COC(=O)/C=C1\S/C(=N\NC(=O)c2cc3ccc2/C=C\c2ccc(cc2)/C=C\3)N(c2ccccc2)C1=O
GI50 [1]: 1.84 µM | TGI [1]: 3.74 µM

COc1cnc2c(c1)C(=O)c1c-2n(CCCN2CCOCC2)c(=O)c2cc(F)ccc12
GI50 [1]: 0.195 µM | TGI [1]: 0.656 µM

OCc1cc2ccccc2c2c3c(ccc12)OCO3
GI50 [1]: 18.9 µM | TGI [1]: 65.1 µM

COc1cccc(-c2cc(-c3cccc(NS(C)(=O)=O)c3)nc(N)c2C#N)c1O
GI50 [1]: 0.421 µM | TGI [1]: 4.23 µM

Cc1cc(-c2nc(C(=O)Nc3cc4oc(N5CCOCC5)nc4nc3N3CC[C@@H](O)C3)co2)ccn1
GI50 [1]: 13.3 µM | TGI [1]: 64.8 µM

C=CCO[C@H]1CO[C@H]2[C@@H]1OC[C@@H]2Oc1ccc(Nc2ccnc(Nc3ccc(O[C@H]4CO[C@H]5[C@@H]4OC[C@@H]5OCC=C)c(Cl)c3)n2)cc1Cl
GI50 [1]: 1.62 µM | TGI [1]: 3.13 µM

CCN1/C(=C\c2cc[n+](CC)c3ccccc23)C=Cc2ccccc21
GI50 [1]: 0.109 µM | TGI [1]: 0.519 µM

COc1cc(/C=N\NC(=O)CN2CCN(c3cc4c(cc3F)c(=O)c(C(=O)N/N=C/c3cc(OC)c(OC)c(OC)c3)cn4C3CC3)CC2)cc(OC)c1OC
GI50 [1]: 0.221 µM | TGI [1]: 0.535 µM

Cc1ccc(CN2CCC(C(=O)Nc3ccc(-c4cc5ccccc5[nH]4)cc3)CC2)o1
GI50 [1]: 83.4 µM | TGI [1]: > 100 µM

Cc1ccnc2c1ccc1c(C)ccnc12
GI50 [1]: 0.36 µM | TGI [1]: 2.72 µM
